According to patent US8148391B2 (Cephalon, Inc., priority 2006, dated 2012):
pIC50: −log10 of the molar value. Read-outs that look alike come from different tables or passages of the source. Values belong to the molecule of their own block, whether it stands above or below them.

Tests used:
[1] = target: T1, baculovirus-expressed ALK (Homo sapiens, UniProt Q9UM73); assay: ALK Kinase Assay (ELISA-type, time-resolved fluorescence); assay type: biochemical
T1 construct: host or cells: baculovirus expression system
In short: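 Wells were coated with phospholipase C-γ at 10 μg/mL in Tris-buffered saline. Adding 30 ng/ml enzyme started the reaction, which ran at 37° C for 15 minutes before Eu-N1 PT66 antibody detection. Percent inhibition versus log10 concentration gave IC50 by variable-slope fit.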

[2] = target: T2, c-Met (cytoplasmic domain) (Homo sapiens, UniProt P08581); assay: c-Met Kinase Assay (same methods as for ALK, with modifications); assay type: biochemical
T2 construct: 10 ng/mL c-Met (cytoplasmic domain, Invitrogen Corporation #PV3143); purchased Invitrogen Corporation PV3143
In short: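 Steps: coat wells with PLC-γ (10 μg/mL, Tris-buffered saline); add 10 ng/mL c-Met cytoplasmic domain to initiate; incubate 15 min, 37° C; detect phosphoproduct via Eu-N1 PT66 antibody.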

[3] = 1 μM ATP (Km level), read-out: ALK Activity (ALK Kinase Inhibition, IC50)
[4] = 1 μM ATP (Km level), read-out: cMet Activity (c-Met Kinase Inhibition, IC50)
[5] = 1 μM ATP (Km level), 30 ng/ml ALK, 37° C., 15 minutes, read-out: ALK Activity (ALK kinase inhibition, IC50 class)
[6] = 1 μM ATP (Km level), 10 ng/mL c-Met, read-out: cMet Activity (c-Met kinase inhibition, IC50 class)
[7] = ALK kinase inhibition, 1 μM ATP, read-out: ALK Activity
[8] = c-Met kinase inhibition, 1 μM ATP, read-out: cMet Activity
[9] = ALK kinase inhibition, 1 μM ATP (Km level), read-out: ALK Activity
[10] = c-Met kinase inhibition, 1 μM ATP (Km level), read-out: cMet Activity

T1 sequence (Q9UM73 19-1620): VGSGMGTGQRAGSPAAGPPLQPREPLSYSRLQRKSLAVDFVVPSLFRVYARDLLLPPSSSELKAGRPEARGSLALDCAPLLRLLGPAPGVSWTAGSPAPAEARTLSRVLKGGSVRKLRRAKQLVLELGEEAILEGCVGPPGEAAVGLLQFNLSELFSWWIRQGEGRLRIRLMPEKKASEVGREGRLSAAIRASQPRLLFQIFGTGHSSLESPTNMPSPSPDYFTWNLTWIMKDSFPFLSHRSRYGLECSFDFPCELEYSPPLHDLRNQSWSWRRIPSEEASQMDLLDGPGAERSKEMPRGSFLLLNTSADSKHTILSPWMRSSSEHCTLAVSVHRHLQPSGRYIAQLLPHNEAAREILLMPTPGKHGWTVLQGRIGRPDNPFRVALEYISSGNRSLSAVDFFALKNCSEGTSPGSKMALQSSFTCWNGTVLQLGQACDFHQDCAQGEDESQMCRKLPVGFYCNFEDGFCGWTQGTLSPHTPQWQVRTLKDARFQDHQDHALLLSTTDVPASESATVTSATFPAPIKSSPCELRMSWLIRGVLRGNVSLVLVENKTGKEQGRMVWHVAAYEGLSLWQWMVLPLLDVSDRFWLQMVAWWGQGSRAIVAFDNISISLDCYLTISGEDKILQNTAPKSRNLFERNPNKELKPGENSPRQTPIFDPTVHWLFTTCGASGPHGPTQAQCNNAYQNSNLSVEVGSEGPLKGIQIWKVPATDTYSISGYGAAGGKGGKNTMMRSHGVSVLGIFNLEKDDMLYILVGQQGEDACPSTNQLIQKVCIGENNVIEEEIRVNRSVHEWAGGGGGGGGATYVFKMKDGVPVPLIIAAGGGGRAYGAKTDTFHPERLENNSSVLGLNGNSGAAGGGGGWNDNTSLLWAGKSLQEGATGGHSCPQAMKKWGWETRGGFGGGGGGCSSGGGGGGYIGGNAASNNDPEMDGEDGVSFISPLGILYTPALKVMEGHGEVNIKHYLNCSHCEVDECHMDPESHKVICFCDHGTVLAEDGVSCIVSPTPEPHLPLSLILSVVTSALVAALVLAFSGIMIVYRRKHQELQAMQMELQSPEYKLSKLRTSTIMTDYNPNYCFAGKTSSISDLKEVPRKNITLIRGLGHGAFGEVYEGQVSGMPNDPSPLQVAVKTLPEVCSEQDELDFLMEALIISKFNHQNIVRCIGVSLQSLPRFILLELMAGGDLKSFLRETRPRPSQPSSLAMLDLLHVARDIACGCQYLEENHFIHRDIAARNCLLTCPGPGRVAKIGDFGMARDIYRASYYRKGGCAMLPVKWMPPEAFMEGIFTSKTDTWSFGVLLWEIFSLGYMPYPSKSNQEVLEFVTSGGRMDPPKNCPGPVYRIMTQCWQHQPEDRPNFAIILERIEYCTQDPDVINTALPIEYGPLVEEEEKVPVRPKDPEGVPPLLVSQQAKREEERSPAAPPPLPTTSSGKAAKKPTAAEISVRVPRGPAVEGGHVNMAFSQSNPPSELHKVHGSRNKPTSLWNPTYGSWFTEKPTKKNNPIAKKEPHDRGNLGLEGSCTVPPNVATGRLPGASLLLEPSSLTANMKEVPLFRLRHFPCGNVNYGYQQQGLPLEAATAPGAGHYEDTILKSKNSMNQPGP
T2 sequence (P08581 956-1390 limits assumed): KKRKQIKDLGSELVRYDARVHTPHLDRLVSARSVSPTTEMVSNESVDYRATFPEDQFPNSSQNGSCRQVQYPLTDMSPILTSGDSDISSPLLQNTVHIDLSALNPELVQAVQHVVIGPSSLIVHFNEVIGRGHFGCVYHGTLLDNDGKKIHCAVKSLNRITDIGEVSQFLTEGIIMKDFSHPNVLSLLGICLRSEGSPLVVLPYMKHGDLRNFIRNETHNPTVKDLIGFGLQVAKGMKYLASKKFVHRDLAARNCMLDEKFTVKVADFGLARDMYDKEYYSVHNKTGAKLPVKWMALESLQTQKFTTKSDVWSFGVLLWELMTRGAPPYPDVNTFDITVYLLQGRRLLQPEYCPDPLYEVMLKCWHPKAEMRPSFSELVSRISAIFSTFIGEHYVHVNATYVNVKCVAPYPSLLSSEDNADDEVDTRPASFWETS

pIC50 [1, 3]: 6.00 to 7.00
pIC50 [2, 4]: < 5.00
SMILES: CCN1CC(=O)N(C)c2cc(Nc3ncc(Cl)c(N[C@@H]4CCCC[C@H]4NS(C)(=O)=O)n3)c(OC)cc2C1 [Example 745, N-[(1R,2R)-2-[5-Chloro-2-(4-ethyl-7-methoxy-1-methyl-2-oxo-2,3,4,5-tetrahydro-1H-benzo[e][1,4]diazepin-8-ylamino)-pyrimidin-4-ylamino]-cyclohexyl}-methanesulfonamide]

pIC50 [1, 5]: > 7.00
pIC50 [2, 6]: < 5.00
SMILES: COCCNC1CCc2cc(Nc3ncc(Cl)c(Nc4ccccc4-n4cccn4)n3)c(OC)cc2CC1 (stereo not drawn) [Example 1085, 5-Chloro-N*2*-[3-methoxy-7-(2-methoxy-ethylamino)-6,7,8,9-tetrahydro-5H-benzocyclohepten-2-yl]-N*4*-(2-pyrazol-1-yl-phenyl)-pyrimidine-2,4-diamine]

pIC50 [1, 7]: 6.00 to 7.00
pIC50 [2, 8]: 5.00 to 6.00
SMILES: CNC(=O)c1cccc(F)c1Nc1nc(Nc2ccc3c(c2)-n2c(C)cnc2CCC3)ncc1Cl [Example 1843, 2-[5-Chloro-2-(1-methyl-5,6-dihydro-4H-3,10b-diaza-benzo[e]azulen-9-ylamino)-pyrimidin-4-ylamino]-3-fluoro-N-methyl-benzamide]

pIC50 [1, 7]: 6.00 to 7.00
pIC50 [2, 8]: > 7.00
SMILES: CNC(=O)c1cccc(F)c1Nc1nc(Nc2ccc3c(c2)NC(=O)CN(C(=O)OCc2ccccc2)C3)ncc1Cl [Example 1857, 8-[5-Chloro-4-(2-fluoro-6-methylcarbamoyl-phenylamino)-pyrimidin-2-ylamino]-2-oxo-1,2,3,5-tetrahydro-benzo[e][1,4]diazepine-4-carboxylic acid benzyl ester]

pIC50 [1, 3]: > 7.00
pIC50 [2, 4]: < 5.00
SMILES: CS(=O)(=O)N[C@@H]1CCCC[C@H]1Nc1nc(Nc2cccc3c2OCCCC3)ncc1Cl [Example 863, N-{(1R,2R)-2-[5-Chloro-2-(2,3,4,5-tetrahydro-benzo[b]oxepin-9-ylamino)pyrimidin-4-ylamino]-cyclohexyl}-methanesulfonamide]

pIC50 [1, 5]: > 7.00
pIC50 [2, 6]: < 5.00
SMILES: COc1cc2c(cc1Nc1ncc(Cl)c(Nc3ccccc3OC)n1)CCN(C(=O)CN(C)C)CC2 [Example 1131, 1-{7-[5-Chloro-4-(2-methoxy-phenylamino)-pyrimidin-2-ylamino]-8-methoxy-1,2,4,5-tetrahydro-benzo[d]azepin-3-yl}-2-dimethylamino-ethanone]

pIC50 [1, 5]: 6.00 to 7.00
pIC50 [2, 6]: 6.00 to 7.00
SMILES: CNC(=O)c1cc(N(C)C)ccc1Nc1nc(Nc2ccc3c(c2)NC(=O)CCC3)ncc1Cl [Example 1412, 2-[5-Chloro-2-(2-oxo-2,3,4,5-tetrahydro-1H-benzo[b]azepin-8-ylamino)-pyrimidin-4-ylamino]-5-dimethylamino-N-methyl-benzamide]

Second part, the molecule before the results:

SMILES: COc1c(Nc2ncc(Cl)c(Nc3ccccc3S(=O)(=O)C(C)C)n2)ccc2c1CCCC(N1CCOCC1)C2 (stereo not drawn) [Example 947, 5-Chloro-N(2)-(1-methoxy-6-morpholin-4-yl-6,7,8,9-tetrahydro-5H-benzocyclohepten-2-yl)-N(4)-[2-(propane-2-sulfonyl)-phenyl]-pyrimidine-2,4-diamine]
pIC50 [1, 3]: > 7.00
pIC50 [2, 4]: < 5.00

SMILES: COc1c(Nc2ncc(Cl)c(N[C@H]3[C@@H](C(N)=O)[C@@H]4C=C[C@H]3C4)n2)ccc2c1CCCC(N1CCOCC1)C2 (single isomer, unassigned) [Example 941]
pIC50 [1, 3]: > 7.00
pIC50 ([2]; read-out: cMet Activity (c-Met Kinase Inhibition, IC50), 1 μM ATP (Km level)): < 5.00

SMILES: COc1cc2c(cc1Nc1ncc(Cl)c(Nc3ccccc3S(C)(=O)=O)n1)CCN(CC(N)=O)CC2 [Example 1143, 2-{7-[5-Chloro-4-(2-methanesulfonyl-phenylamino)-pyrimidin-2-ylamino]-8-methoxy-1,2,4,5-tetrahydro-benzo[d]azepin-3-yl}-acetamide]
pIC50 [1, 5]: > 7.00
pIC50 [2, 6]: < 5.00

SMILES: COCCOc1cccc(F)c1Nc1nc(Nc2ccc3c(c2)CCN(CCOC)CC3)ncc1Cl [Example 1696, 5-Chloro-N*4*-[2-fluoro-6-(2-methoxy-ethoxy)-phenyl]-N*2*-[3-(2-methoxy-ethyl)-2,3,4,5-tetrahydro-1H-benzo[d]azepin-7-yl]-pyrimidine-2,4-diamine]
pIC50 [1, 7]: > 7.00
pIC50 [2, 8]: 6.00 to 7.00

SMILES: COCCN1CCc2cc(Nc3ncc(Cl)c(N[C@H]4[C@@H](C(N)=O)[C@@H]5C=C[C@H]4C5)n3)c(OC)cc2CC1 [Example 1315, (1S,2S,3R,4R)-3-{5-Chloro-2-[8-methoxy-3-(2-methoxy-ethyl)-2,3,4,5-tetrahydro-1H-benzo[d]azepin-7-ylamino]-pyrimidin-4-ylamino}-bicyclo[2.2.1]hept-5-ene-2-carboxylic acid amide]
pIC50 [1, 5]: > 7.00
pIC50 [2, 6]: < 5.00

SMILES: CNC(=O)c1ccccc1Nc1nc(Nc2cc3c(cc2OC)CC(=O)NCC3)ncc1Cl [Example 264, 2-[5-Chloro-2-(8-methoxy-2-oxo-2,3,4,5-tetrahydro-1H-benzo[d]azepin-7-ylamino)-pyrimidin-4-ylamino]-N-methyl-benzamide]
pIC50 [1, 9]: > 7.00
pIC50 [2, 10]: 5.00 to 6.00

SMILES: COc1cc2c(cc1Nc1ncc(Cl)c(N[C@@H]3CCCC[C@H]3NS(C)(=O)=O)n1)CCN(C(=O)CN(C)C)CC2 [Example 1125, N-((1R,2R)-2-{5-Chloro-2-[3-(2-dimethylamino-acetyl)-8-methoxy-2,3,4,5-tetrahydro-1H-benzo[d]azepin-7-ylamino]-pyrimidin-4-ylamino}-cyclohexyl)-methanesulfonamide]
pIC50 [1, 5]: > 7.00
pIC50 [2, 6]: < 5.00

SMILES: CNC(=O)c1cc(-c2cnn(C)c2)cc(F)c1Nc1nc(Nc2ccc3c(c2)NC(=O)CCC3)ncc1Cl [Example 1422, 2-[5-Chloro-2-(2-oxo-2,3,4,5-tetrahydro-1H-benzo[b]azepin-8-ylamino)-pyrimidin-4-ylamino]-3-fluoro-N-methyl-5-(1-methyl-1H-pyrazol-4-yl)-benzamide]
pIC50 [1, 5]: 6.00 to 7.00
pIC50 [2, 6]: > 7.00

SMILES: COCC(COC)N1CCc2cc(Nc3ncc(Cl)c(N[C@H]4[C@@H](C(N)=O)[C@@H]5C=C[C@H]4C5)n3)c(OC)cc2CC1 [Example 815, (1S,2S,3R,4R)-3-{5-Chloro-2-[8-methoxy-3-(2-methoxy-1-methoxymethyl-ethyl)-2,3,4,5-tetrahydro-1H-benzo[d]azepin-7-ylamino]-pyrimidin-4-ylamino}-bicyclo[2.2.1]hept-5-ene-2-carboxylic acid amide]
pIC50 [1, 3]: > 7.00
pIC50 [2, 4]: < 5.00

SMILES: COc1cc2c(cc1Nc1ncc(Cl)c(Nc3ccccc3S(=O)(=O)C(C)C)n1)CCC(NCCO)CC2 (stereo not drawn) [Example 1090, 2-(2-{5-Chloro-4-[2-(propane-2-sulfonyl)-phenylamino]-pyrimidin-2-ylamino}-3-methoxy-6,7,8,9-tetrahydro-5H-benzocyclohepten-7-ylamino)-ethanol]
pIC50 [1, 5]: > 7.00
pIC50 [2, 6]: 5.00 to 6.00

SMILES: Cc1cccc(-c2ccccc2Nc2nc(Nc3ccc4c(c3)C(C)(C)CCC(=O)N4)ncc2Cl)n1 [Example 1008, 7-{5-Chloro-4-[2-(6-methyl-pyridin-2-yl)-phenylamino]-pyrimidin-2-ylamino}-5,5-dimethyl-1,3,4,5-tetrahydro-benzo[b]azepin-2-one]
pIC50 [1, 3]: > 7.00
pIC50 [2, 4]: 5.00 to 6.00

SMILES: COCCCNC(=O)c1ccccc1Nc1nc(Nc2ccc3c(c2)CCN(CCOC)CC3)ncc1Cl [Example 1399, {5-Chloro-2-[3-(2-methoxy-ethyl)-2,3,4,5-tetrahydro-1H-benzo[d]azepin-7-ylamino]-pyrimidin-4-ylamino}-N-(3-methoxy-propyl)-benzamide]
pIC50 [1, 5]: > 7.00
pIC50 [2, 6]: 5.00 to 6.00

SMILES: CCN1C(=O)CCCc2ccc(Nc3ncc(Cl)c(Nc4ccccc4OCC#N)n3)cc21 [Example 1230, {2-[5-Chloro-2-(1-ethyl-2-oxo-2,3,4,5-tetrahydro-1H-1-benzazepin-8-ylamino)-pyrimidin-4-ylamino]-phenoxy}-acetonitrile]
pIC50 [1, 5]: > 7.00
pIC50 [2, 6]: > 7.00

SMILES: COCCN1CCc2ccc(Nc3ncc(Cl)c(Nc4cc(Cl)ccc4OC)n3)cc2CC1 [Example 146, 5-Chloro-N*4*-(5-chloro-2-methoxy-phenyl)-N*2*-[3-(2-methoxy-ethyl)-2,3,4,5-tetrahydro-1H-benzo[d]azepin-7-yl]-pyrimidine-2,4-diamine]
pIC50 [1, 9]: > 7.00
pIC50 [2, 10]: 6.00 to 7.00

SMILES: CNC(=O)c1scc(C)c1Nc1nc(Nc2ccc3c(c2)CC(=O)N(C)CC3)ncc1Cl [Example 1816, 3-[5-Chloro-2-(3-methyl-4-oxo-2,3,4,5-tetrahydro-1H-benzo[d]azepin-7-ylamino)-pyrimidin-4-ylamino]-4-methyl-thiophene-2-carboxylic acid methylamide]
pIC50 [1, 7]: > 7.00
pIC50 [2, 8]: 6.00 to 7.00

SMILES: CCN1C2CCC1c1cc(Nc3ncc(Cl)c(Nc4ccccc4NS(C)(=O)=O)n3)ccc1C2 (stereo not drawn) [Example 72, N-{2-[5-Chloro-2-(12-ethyl-12-aza-tricyclo[7.2.1.0*2,7*]dodeca-2(7),3,5-trien-4-ylamino)-pyrimidin-4-ylamino]-phenyl}-methanesulfonamide]
pIC50 [1, 9]: > 7.00
pIC50 [2, 10]: 6.00 to 7.00

SMILES: CCN1CCc2ccc(OC)c(Nc3ncc(Cl)c(Nc4ccccc4S(=O)(=O)NC)n3)c2CC1 [Example 49, 2-[5-Chloro-2-(3-ethyl-7-methoxy-2,3,4,5-tetrahydro-1H-benzo[d]azepin-6-ylamino)-pyrimidin-4-ylamino]-N-methyl-benzenesulfonamide]
pIC50 [1, 9]: > 7.00
pIC50 [2, 10]: < 5.00
